According to US20260130933A1, “PHARMACEUTICAL COMPOSITION FOR PREVENTION OR TREATMENT OF NEPHROPATHY AND/OR DIABETES MELLITUS, COMPRISING ENAVOGLIFLOZIN” (DAEWOONG PHARMACEUTICAL CO., LTD., priority 2022, published 2026):

Experiment: Example 3: phase 3 trial, enavogliflozin 0.3 mg vs dapagliflozin 10 mg once a day for 24 weeks added to metformin and gemigliptin in patients with type 2 diabetes (same endpoints, rescue drug)
Format: in vivo, human
Method: 1) when Metformin (≥1,000 mg/Day) was Administered at a Constant Dose for at Least 8 Weeks Prior to Pre-Visit (Pre-Screening) • Metformin (≥1,000 mg/day) and gemigliptin (50 mg/day) were co-administered during the 8-week stabilization period. […] 4) when Metformin (≥1,000 mg/Day) and Gemigliptin (50 mg/Day) were Co-Administered at Constant Doses for at Least 8 Weeks Prior to Pre-Visit (Prescreening) • Without a separate stabilization period, Pre-visit (pre-screening) was Visit 1 (screening).
Subjects who met the inclusion/exclusion criteria continued to receive metformin and gemigliptin while receiving a placebo of the clinical trial drug in a single-blind (subject-blinded) state for a 2-week run-in period.
Here, the randomized subjects were stratified according to the administration therapy (co-administration with two or less agents (one or two agents) or three or more agents) of a conventional hypoglycemic agent (before washout of another hypoglycemic agent) within 24 weeks prior to obtaining written informed consent and by an HbA1c value (<8% or ≥8%) at Visit 1 (screening) measured in the central laboratory.
The randomized subjects were administered two tablets of the clinical trial drug corresponding to each administration group once a day, and then visited the institution at weeks 6, 12, 18, and 24 during the 24-week administration period to conduct efficacy and safety assessments. In addition, during the clinical trial period, they were instructed to exercise regularly and control their diet without changing their daily life patterns.
• 1) Change in HbA1c at week 24 after administration of clinical trial drug compared to Visit 2 (randomization)
• 1) Change in HbA1c at each time point of weeks 6, 12, and 18 after administration of clinical trial drug compared to Visit 2 (randomization) • 2) Change in FPG at each time point of weeks 6, 12, 18, and 24 after administration of clinical trial drug compared to Visit 2 (randomization) • 3) Proportion of subjects achieving HbA1c<7% at each time point of weeks 6, 12, 18, and 24 after administration of clinical trial drug • 4) Proportion of subjects achieving HbA1c<6.5% at each time point of weeks 6, 12, 18, and 24 after administration of clinical trial drug • 5) Proportion of subjects achieving therapeutic response (HbA1c change (HbA1c at Visit 2—HbA1c at each evaluation time point)>0.5% or HbA1c<7% at each evaluation time point compared to Visit 2 (randomization)) at each time point of weeks 6, 12, 18, and 24 after administration of clinical trial drug • 6) Proportion of subjects achieving therapeutic response (HbA1c change (HbA1c at Visit 2—HbA1c at each evaluation time point)>0.7% or HbA1c<7% at each evaluation time point compared to Visit 2 (randomization)) at each time point of weeks 6, 12, 18, and 24 after administration of clinical trial drug • 7) Proportion of subjects achieving therapeutic response (HbA1c change (HbA1c at Visit 2—HbA1c at each evaluation time point)>1% or HbA1c<7% at each evaluation time point compared to Visit 2 (randomization)) at each time point of weeks 6, 12, 18, and 24 after administration of clinical trial drug

[1] = week 6, per-protocol set, enavogliflozin 0.3 mg, dapagliflozin 10 mg
[2] = week 12, modified per-protocol set 1, enavogliflozin 0.3 mg vs dapagliflozin 10 mg
[3] = week 12, modified per-protocol set 1, enavogliflozin 0.3 mg, dapagliflozin 10 mg
[4] = week 12, modified per-protocol set 2
[5] = week 12, modified per-protocol set 2, enavogliflozin 0.3 mg, dapagliflozin 10 mg
[6] = week 12, per-protocol set, enavogliflozin 0.3 mg vs dapagliflozin 10 mg
[7] = week 12, per-protocol set, enavogliflozin 0.3 mg, dapagliflozin 10 mg

## OC[C@H]1O[C@@H](c2cc(Cc3ccc(C4CC4)cc3)c(Cl)c3c2CCO3)[C@H](O)[C@@H](O)[C@@H]1O [Enavogliflozin, (2S,3R,4R,5S,6R)-2-(7-chloro-6 (4-cyclopropylbenzyl)-2,3-dihydrobenzofuran-4-yl)-6-(hydroxymethyl)tetrahydro-2H-pyran-3,4,5-triol]
[1]
  Fasting C-peptide, Mean: 0.67 ng/mL
  Fasting C-peptide, Median: 0.63 ng/mL
  HbA1c, Mean: 7.06%
  HbA1c, Median: 6.94%
  Subjects achieving HbA1c target of <6.5%, (%): 11.21%
  Subjects achieving HbA1c target of <7%, %: 56.03%
  body weight, Median: 66.80 kg
Week 6, per-protocol set, response 1 = HbA1c change >0.5% or HbA1c <7%, enavogliflozin 0.3 mg, dapagliflozin 10 mg
  Subjects achieving therapeutic glycemic response 1, %: 87.07%
Week 6, per-protocol set, response 2 = HbA1c change >0.7% or HbA1c <7%, enavogliflozin 0.3 mg, dapagliflozin 10 mg
  Subjects achieving therapeutic glycemic response 2, %: 78.45%
Week 6, per-protocol set, response 3 = HbA1c change >1% or HbA1c <7%, enavogliflozin 0.3 mg, dapagliflozin 10 mg
  Subjects achieving therapeutic glycemic response 3, %: 70.69%
Week 12
  FPG change from baseline, LS mean (SE): −27.17(1.54) mg/dL
  HDL-C change from baseline, LS mean (SE): 3.18(0.62) mg/dL
  HOMA-β change from baseline, LS mean (SE): 7.78(1.94)
  HbA1c change from baseline, LS mean (SE): −0.87(0.04) % p
  LDL-C change from baseline, LS mean (SE): 2.95(1.79) mg/dL
  UACR change from baseline, LS mean (SE): −15.12(4.60) g/kg
  UGCR change from baseline, LS mean (SE): 58.21(2.07) mg/mg
  adiponectin change from baseline, LS mean (SE): 0.89(0.34) μg/mL
  body weight change from baseline, LS mean (SE): −2.72(0.20) kg
  diastolic blood pressure change from baseline, LS mean (SE): −4.30(0.69) mmHg
  fasting C-peptide change from baseline, LS mean (SE): −0.09(0.02) ng/ml
  leptin change from baseline, LS mean (SE): −1.97(0.48) ng/ml
  systolic blood pressure change from baseline, LS mean (SE): −6.43(0.88) mmHg
  total cholesterol change from baseline, LS mean (SE): 6.80(2.04) mg/dL
  triglyceride change from baseline, LS mean (SE): −3.23(5.25) mg/dL
Week 12, vs dapagliflozin
  FPG change from baseline, LS mean difference: -2.75 mg/dL
  HDL-C change from baseline, LS mean difference: 0.34 mg/dL
  HOMA-IR change from baseline, LS mean difference: −0.06
  HOMA-β change from baseline, LS mean difference: 2.55
  HbA1c change from baseline, LS mean difference: −0.04 % p
  LDL-C change from baseline, LS mean difference: 0.24 mg/dL
  Odds ratio for achieving HbA1c<6.5%: 1.44
  Odds ratio for achieving HbA1c<7%: 1.20
  Odds ratio, therapeutic response (HbA1c change >0.5% or HbA1c<7%): 1.09
  Odds ratio, therapeutic response (HbA1c change >0.7% or HbA1c<7%): 1.30
  Odds ratio, therapeutic response (HbA1c change >1% or HbA1c<7%): 1.31
  UACR change from baseline, LS mean difference: -3.35 g/kg
  UGCR change from baseline, LS mean difference: 13.37 mg/mg
  adiponectin change from baseline, LS mean difference: 0.19 µg/mL
  body weight change from baseline, LS mean difference: -0.01 kg
  diastolic blood pressure change from baseline, LS mean difference: −2.04 mmHg
  fasting C-peptide change from baseline, LS mean difference: -0.02 ng/mL
  leptin change from baseline, LS mean difference: -0.28 ng/mL
  systolic blood pressure change from baseline, LS mean difference: −1.37 mmHg
  total cholesterol change from baseline, LS mean difference: 1.40 mg/dL
  triglyceride change from baseline, LS mean difference: 8.79 mg/dL
[2]
  Change from baseline in HDL-C, ANCOVA LS mean difference: 0.34 mg/dL
  Change from baseline in LDL-C, ANCOVA LS mean difference: 0.24 mg/dL
  Change from baseline in total cholesterol, ANCOVA LS mean difference: 1.40 mg/dL
  Change from baseline in triglycerides, ANCOVA LS mean difference: 8.79 mg/dL
[3]
  Change from baseline in HDL-C, ANCOVA LS mean: 3.18 mg/dL
  Change from baseline in HDL-C, Mean: 3.17 mg/dL
  Change from baseline in HDL-C, Median: 3.00 mg/dL
  Change from baseline in LDL-C, ANCOVA LS mean: 2.95 mg/dL
  Change from baseline in LDL-C, Mean: 3.76 mg/dL
  Change from baseline in LDL-C, Median: 3.00 mg/dL
  Change from baseline in total cholesterol, ANCOVA LS mean: 6.80 mg/dL
  Change from baseline in total cholesterol, Mean: 7.79 mg/dL
  Change from baseline in total cholesterol, Median: 7.00 mg/dL
  Change from baseline in triglycerides, ANCOVA LS mean: -3.23 mg/dL
  Change from baseline in triglycerides, Mean: 0.59 mg/dL
  Change from baseline in triglycerides, Median: -3.00 mg/dL
  Fasting HDL-C, Mean: 49.21 mg/dL
  Fasting HDL-C, Median: 47.50 mg/dL
  Fasting LDL-C, Mean: 75.11 mg/dL
  Fasting LDL-C, Median: 72.00 mg/dL
  Fasting total cholesterol, Mean: 142.09 mg/dL
  Fasting triglycerides, Mean: 118.98 mg/dL
  Fasting triglycerides, Median: 98.50 mg/dL
  fasting Total cholesterol, Median: 136.00 mg/dL
[4]
  Change from baseline in diastolic blood pressure, ANCOVA LS mean: −4.30 mmHg
  Change from baseline in diastolic blood pressure, LS mean difference (enavogliflozin − dapagliflozin): −2.04 mmHg
  Change from baseline in diastolic blood pressure, Mean: −5.07 mmHg
  Change from baseline in diastolic blood pressure, Median: −5.00 mmHg
  Diastolic blood pressure, Mean: 71.61 mmHg
  Diastolic blood pressure, Median: 72.00 mmHg
Week 12, modified per-protocol set 2, enavogliflozin 0.3 mg vs dapagliflozin 10 mg
  Change from baseline in systolic blood pressure, ANCOVA LS mean difference: −1.37 mmHg
[5]
  Change from baseline in systolic blood pressure, ANCOVA LS mean: −6.43 mmHg
  Change from baseline in systolic blood pressure, Mean: −7.10 mmHg
  Change from baseline in systolic blood pressure, Median: −8.00 mmHg
  Systolic blood pressure, Mean: 120.73 mmHg
  Systolic blood pressure, Median: 121.00 mmHg
Week 12, per-protocol set
  Adiponectin, Mean: 7.13 µg/mL
  Adiponectin, Median: 6.24 µg/mL
  Change from baseline in HOMA-IR, ANCOVA LS mean: −1.11
  Change from baseline in HOMA-IR, LS mean difference (enavogliflozin − dapagliflozin): −0.06
  Change from baseline in HOMA-IR, Mean: −1.16
  Change from baseline in HOMA-IR, Median: −0.79
  Change from baseline in HOMA-β, ANCOVA LS mean: 7.78
  Change from baseline in HOMA-β, LS mean difference (enavogliflozin − dapagliflozin): 2.55
  Change from baseline in HOMA-β, Mean: 6.71
  Change from baseline in HOMA-β, Median: 4.80
  Change from baseline in UACR, ANCOVA LS mean: -15.12 g/kg
  Change from baseline in UACR, LS mean difference (enavogliflozin − dapagliflozin): -3.35 g/kg
  Change from baseline in UACR, Mean: -18.62 g/kg
  Change from baseline in UACR, Median: -1.05 g/kg
  Change from baseline in UGCR, ANCOVA LS mean: 58.21 mg/mg
  Change from baseline in UGCR, LS mean difference (enavogliflozin − dapagliflozin): 13.37 mg/mg
  Change from baseline in UGCR, Mean: 57.00 mg/mg
  Change from baseline in UGCR, Median: 57.05 mg/mg
  Change from baseline in adiponectin, ANCOVA LS mean: 0.89 µg/mL
  Change from baseline in adiponectin, LS mean difference (enavogliflozin − dapagliflozin): 0.19 µg/mL
  Change from baseline in adiponectin, Mean: 0.88 µg/mL
  Change from baseline in adiponectin, Median: 1.00 µg/mL
  Change from baseline in leptin, ANCOVA LS mean: -1.97 ng/mL
  Change from baseline in leptin, LS mean difference (enavogliflozin − dapagliflozin): -0.28 ng/mL
  Change from baseline in leptin, Mean: -1.96 ng/mL
  Change from baseline in leptin, Median: -1.28 ng/mL
  HOMA-IR (insulin resistance), Mean: 1.76
  HOMA-IR (insulin resistance), Median: 1.46
  HOMA-β (beta-cell function), Mean: 49.46
  HOMA-β (beta-cell function), Median: 41.50
  Leptin, Mean: 8.56 ng/mL
  Leptin, Median: 5.74 ng/mL
  UACR, Mean: 29.37 g/kg
  UACR, Median: 11.20 g/kg
  UGCR, Mean: 57.71 mg/mg
  UGCR, Median: 57.43 mg/mg
[6]
  Achieving HbA1c target of <6.5%, odds ratio (logistic regression model): 1.44
  Achieving HbA1c target of <7%, odds ratio (logistic regression model): 1.20
  Change from baseline in FPG, ANCOVA LS mean difference: -2.75 mg/dL
  Change from baseline in HbA1c, ANCOVA LS mean difference: −0.04 % p
  Change from baseline in body weight, ANCOVA LS mean difference: -0.01 kg
  Change from baseline in fasting C-peptide, ANCOVA LS mean difference: -0.02 ng/mL
  Therapeutic glycemic response 1, odds ratio (logistic regression model): 1.09
  Therapeutic glycemic response 2, odds ratio (logistic regression model): 1.30
  Therapeutic glycemic response 3, odds ratio (logistic regression model): 1.31
[7]
  Body weight, Mean: 66.54 kg
  Change from baseline in FPG, ANCOVA LS mean: -27.17 mg/dL
  Change from baseline in FPG, Mean: -27.47 mg/dL
  Change from baseline in FPG, Median: -25.00 mg/dL
  Change from baseline in HbA1c, ANCOVA LS mean: −0.87 % p
  Change from baseline in HbA1c, Mean: −0.89 % p
  Change from baseline in HbA1c, Median: −0.75 % p
  Change from baseline in body weight, ANCOVA LS mean: -2.72 kg
  Change from baseline in body weight, Mean: -2.65 kg
  Change from baseline in body weight, Median: -2.90 kg
  Change from baseline in fasting C-peptide, ANCOVA LS mean: -0.09 ng/mL
  Change from baseline in fasting C-peptide, Mean: -0.09 ng/mL
  Change from baseline in fasting C-peptide, Median: -0.10 ng/mL
  FPG, Mean: 112.29 mg/dL
  FPG, Median: 110.00 mg/dL
  Fasting C-peptide, Mean: 0.64 ng/mL
  Fasting C-peptide, Median: 0.63 ng/mL
  HbA1c, Mean: 6.90%
